Test results taken from the NIST ThermoML archive (doi:10.1021/je100583z).
Numbers after ± are expanded uncertainties.

Conditions: Liquid, Closed cell (Static) method

SMILES | vapor or sublimation pressure (278.15 K) [kPa] | vapor or sublimation pressure (288.15 K) [kPa] | vapor or sublimation pressure (298.15 K) [kPa] | vapor or sublimation pressure (308.15 K) [kPa] | vapor or sublimation pressure (318.15 K) [kPa] | vapor or sublimation pressure (328.15 K) [kPa]
FC(C(F)(F)F)C(F)(F)F [1,1,1,2,3,3,3-heptafluoropropane] | 234 ± 1 | 327 ± 1 | 451 ± 1 | 611 ± 1 | 805 ± 2 | 1040 ± 2
O=C=O [carbon dioxide] | 3960 ± 8 | 5080 ± 10 | 6425 ± 13 |  |  | 
